How the values were obtained:
MOLT-3 = assay: Anti-leukemic activity against Molt-3 (T-lineage ALL, human acute lymphoblastic leukemia) cell line.; format: functional, cell-based
NALM-6 = assay: Anti-leukemic activity against Nalm-6 (B-lineage ALL, human acute lymphoblastic leukemia) cell line.; format: functional, cell-based

IC50 (MOLT-3) [µM] | IC50 (NALM-6) [µM] | SMILES
2.5 | 4.8 | CCCCCCCSC[C@H](NC(C)=O)C(=O)CCl
> 100 | > 100 | CCCCCCCCCCCCCCCCCCCCCCSC[C@H](NC(C)=O)C(=O)CCl
5.4 | 5.8 | CCCCCSC[C@H](NC(C)=O)C(=O)CCl
5.6 | 41.4 | CCCCSC[C@H](NC(C)=O)C(=O)CCl
8 | 6.9 | CCCSC[C@H](NC(C)=O)C(=O)CCl
0.7 | 3.3 | CCCCCCSC[C@H](NC(C)=O)C(=O)CCl
8.8 | 8.7 | CCCCCCCCCCCCCCSC[C@H](NC(C)=O)C(=O)CCl
8.6 | 8.9 | CCCCCCCCCCCCCCCSC[C@H](NC(C)=O)C(=O)CCl
> 100 | > 100 | CCCCCCCCCCCCCCCCCCCCSC[C@H](NC(C)=O)C(=O)CCl
3.4 | 4.7 | CCCCCCCCCCSC[C@H](NC(C)=O)C(=O)CCl
> 100 | > 100 | CCCCCCCCCCCCCSC[C@H](NC(C)=O)C(=O)CCl
3 | 1.7 | CCCCCCCCCCCSC[C@H](NC(C)=O)C(=O)CCl
> 100 | > 100 | CCCCCCCCCCCCCCCCCCSC[C@H](NC(C)=O)C(=O)CCl
4.1 | 5.6 | CCCCCCCCSC[C@H](NC(C)=O)C(=O)CCl
6.7 | 7.3 | CCCCCCCCCSC[C@H](NC(C)=O)C(=O)CCl
17.3 | 16 | CCCCCCCCCCCCCCCCSC[C@H](NC(C)=O)C(=O)CCl
99.9 | 52.8 | CCSC[C@H](NC(C)=O)C(=O)CCl

SMILES | IC50 (MOLT-3) [µM] | IC50 (NALM-6) [µM]
CSC[C@H](NC(C)=O)C(=O)CCl | 80.8 | 30.3

Source: ChEMBL document CHEMBL1133422, “The S-alkyl chain length as a determinant of the anti-leukemic activity of cysteine chloromethyl ketone compounds” (Bioorg Med Chem Lett, 2000)
